As usually defined, the AC50 is the midpoint of the concentration-response curve, whichever way the signal moves. Low values mean activity at low concentration, high ones activity only at high concentration.

Like-named read-outs stand apart in the source and are kept apart here.

Data set [1] has as its target human CYP2D6 (Homo sapiens, UniProt P10635).
In data set [2] the target is T1, human CYP2C9 (Homo sapiens, UniProt P11712).
In data set [3] the target is CYP3A4 (Homo sapiens, UniProt P08684). Briefly: biochemical.
Chain of CYP3A4 (P08684 whole entry): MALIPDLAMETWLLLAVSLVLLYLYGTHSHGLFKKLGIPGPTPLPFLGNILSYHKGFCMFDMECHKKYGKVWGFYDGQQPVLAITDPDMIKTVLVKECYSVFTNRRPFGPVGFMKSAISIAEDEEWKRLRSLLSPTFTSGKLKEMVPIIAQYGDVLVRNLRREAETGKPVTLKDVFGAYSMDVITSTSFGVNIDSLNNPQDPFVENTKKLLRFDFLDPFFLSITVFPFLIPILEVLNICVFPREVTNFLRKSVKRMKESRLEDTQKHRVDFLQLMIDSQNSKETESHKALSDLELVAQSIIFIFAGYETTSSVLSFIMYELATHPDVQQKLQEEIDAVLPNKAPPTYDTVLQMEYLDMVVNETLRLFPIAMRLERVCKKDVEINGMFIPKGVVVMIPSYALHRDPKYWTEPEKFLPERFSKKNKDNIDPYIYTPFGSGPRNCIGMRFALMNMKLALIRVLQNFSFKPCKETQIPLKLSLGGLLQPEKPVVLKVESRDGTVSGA
The target in data set [4] is T2, human CYP1A2 (Homo sapiens, UniProt P05177).
T2 sequence (P05177 1-516): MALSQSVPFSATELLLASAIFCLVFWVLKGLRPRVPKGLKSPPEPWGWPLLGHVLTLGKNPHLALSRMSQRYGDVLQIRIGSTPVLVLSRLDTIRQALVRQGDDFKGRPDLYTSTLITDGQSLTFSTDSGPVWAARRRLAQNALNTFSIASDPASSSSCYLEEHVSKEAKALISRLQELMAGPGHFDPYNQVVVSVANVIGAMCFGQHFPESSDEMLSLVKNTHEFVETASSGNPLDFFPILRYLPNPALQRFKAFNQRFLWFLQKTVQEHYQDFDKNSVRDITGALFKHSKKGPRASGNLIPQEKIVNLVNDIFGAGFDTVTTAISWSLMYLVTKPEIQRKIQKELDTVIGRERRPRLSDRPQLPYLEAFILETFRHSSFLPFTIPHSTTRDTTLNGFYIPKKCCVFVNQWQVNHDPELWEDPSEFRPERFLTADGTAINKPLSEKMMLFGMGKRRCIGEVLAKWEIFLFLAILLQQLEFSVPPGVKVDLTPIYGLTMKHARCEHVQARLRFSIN
Briefly: biochemical.

The target in data set [5] is T3, human CYP2C19 (Homo sapiens, UniProt P33261).
T3 sequence (P33261 whole entry): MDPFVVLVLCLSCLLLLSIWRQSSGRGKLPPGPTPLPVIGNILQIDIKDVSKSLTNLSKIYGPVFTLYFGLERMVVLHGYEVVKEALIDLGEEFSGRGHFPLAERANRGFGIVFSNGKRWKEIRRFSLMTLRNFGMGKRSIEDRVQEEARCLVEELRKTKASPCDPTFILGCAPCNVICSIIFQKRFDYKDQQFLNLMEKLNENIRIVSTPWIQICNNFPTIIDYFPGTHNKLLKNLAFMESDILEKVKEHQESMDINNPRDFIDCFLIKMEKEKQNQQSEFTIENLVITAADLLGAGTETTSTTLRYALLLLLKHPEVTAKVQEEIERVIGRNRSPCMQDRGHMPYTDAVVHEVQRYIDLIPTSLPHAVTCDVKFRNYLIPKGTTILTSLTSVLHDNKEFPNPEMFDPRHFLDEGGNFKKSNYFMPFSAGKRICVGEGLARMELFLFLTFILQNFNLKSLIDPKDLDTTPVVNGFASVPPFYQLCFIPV
Data set [6] concerns the target T1, human CYP2C9. Briefly: biochemical. Particulars: CYP2C9 AC50 (half-maximal activity concentration).
The target of data set [7] is T3, human CYP2C19. Nature of the data set: biochemical. Particulars: CYP2C19 AC50 (half-maximal activity concentration).
[8] abbreviates: CYP3A4 AC50 (half-maximal activity concentration).
The mark [9] stands for this setting: CYP1A2 AC50 (half-maximal activity concentration).

Chain of human CYP2D6 (P10635 whole entry): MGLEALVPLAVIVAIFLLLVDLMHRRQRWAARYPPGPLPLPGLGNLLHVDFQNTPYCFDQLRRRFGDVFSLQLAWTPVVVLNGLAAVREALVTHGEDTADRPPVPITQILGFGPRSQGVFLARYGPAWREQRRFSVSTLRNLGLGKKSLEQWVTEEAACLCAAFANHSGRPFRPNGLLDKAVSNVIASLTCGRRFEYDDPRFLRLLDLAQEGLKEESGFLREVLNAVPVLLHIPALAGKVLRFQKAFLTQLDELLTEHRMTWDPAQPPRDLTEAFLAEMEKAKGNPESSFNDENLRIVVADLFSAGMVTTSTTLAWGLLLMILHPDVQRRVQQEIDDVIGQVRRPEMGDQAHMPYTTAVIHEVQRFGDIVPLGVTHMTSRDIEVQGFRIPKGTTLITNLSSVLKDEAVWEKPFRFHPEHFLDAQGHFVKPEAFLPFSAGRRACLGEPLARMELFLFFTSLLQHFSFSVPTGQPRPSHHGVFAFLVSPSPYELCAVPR
T1 sequence (P11712 whole entry): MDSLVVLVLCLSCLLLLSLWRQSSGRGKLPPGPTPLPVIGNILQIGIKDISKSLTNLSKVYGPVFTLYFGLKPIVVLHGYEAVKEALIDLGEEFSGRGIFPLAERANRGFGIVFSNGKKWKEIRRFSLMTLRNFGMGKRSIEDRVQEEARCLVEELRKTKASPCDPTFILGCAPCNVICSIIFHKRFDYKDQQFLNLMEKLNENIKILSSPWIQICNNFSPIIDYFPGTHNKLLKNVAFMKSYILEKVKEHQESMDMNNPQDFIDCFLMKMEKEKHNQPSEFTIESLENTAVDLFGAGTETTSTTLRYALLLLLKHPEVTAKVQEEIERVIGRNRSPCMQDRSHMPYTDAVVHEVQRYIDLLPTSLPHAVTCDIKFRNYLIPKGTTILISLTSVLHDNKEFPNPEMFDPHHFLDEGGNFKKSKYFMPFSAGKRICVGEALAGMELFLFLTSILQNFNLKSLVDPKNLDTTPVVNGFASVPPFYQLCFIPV

Regarding `O=C(O)c1ccc(Cl)c(Cl)c1` [3,4-Dichlorobenzoic acid], the “CYP2D6 AC50 (half-maximal activity concentration)” value (“CYP2D6 AC50” below) in data set [1] was “Inactive”. Also, the “CYP2C9 AC50 (half-maximal activity concentration)” value (“CYP2C9 AC50” below) in data set [2] is given as “Inconclusive inhibitor”. Besides, the concentration at half-maximal activity (AC50) in data set [3] (setting [8]) was found to be 59.7 µM; in data set [4] (setting [9]), 59.2 µM. The “CYP2C19 AC50 (half-maximal activity concentration)” value (from here on “CYP2C19 AC50”) in data set [5] is “Inconclusive inhibitor”.

`O=[N+]([O-])c1cccc2cccnc12` [8-Nitroquinoline]: the “CYP2D6 AC50” value in data set [1] is recorded as “Inactive”. Moreover, the “CYP2C9 AC50” value in data set [2] is given as “Inactive”. Further, the concentration at half-maximal activity (AC50) in data set [3] (setting [8]) came to 38 µM; in data set [4] (setting [9]), 33.9 µM. Further, the “CYP2C19 AC50” value in data set [5] is given as “Inconclusive inhibitor”.

With `O=[N+]([O-])c1cccc(Cl)c1Cl` [2,3-Dichloronitrobenzene], the “CYP2D6 AC50” value in data set [1] was “Inactive”. Further, the “CYP2C9 AC50” value in data set [2] is given as “Inconclusive activator”. In addition, the half-maximal activity concentration (AC50) in data set [3] (setting [8]) worked out at 29.1 µM; in data set [4] (setting [9]), 34.6 µM. The “CYP2C19 AC50” value in data set [5] was “Inactive”.

Consider `CCCCc1c(C)nc(NCC)[nH]c1=O` [Ethirimol], for which, in data set [1], the “CYP2D6 AC50” value is “Inactive”. For the same compound, in data set [2], the “CYP2C9 AC50” value was “Inactive”. Besides, the values for the AC50 in data set [3] (setting [8]) and in data set [4] (setting [9]) were 31.8 µM and 31.1 µM, respectively. In addition, in data set [5], the “CYP2C19 AC50” value is “Inconclusive inhibitor”.

As to `COC(=O)c1ccc(C(=O)OC)cc1` [Dimethyl terephthalate], the “CYP2D6 AC50” value in data set [1] is on record as “Inactive”. In data set [2], the “CYP2C9 AC50” value is “Inactive”. For the same compound, the AC50 was 40.1 µM in data set [3] (setting [8]) and 9.66 µM in data set [4] (setting [9]). Moreover, in data set [5], the “CYP2C19 AC50” value is “Inactive”.

As to `COC(=O)c1cccc(C(=O)OC)c1` [Dimethyl isophthalate], the “CYP2D6 AC50” value in data set [1] is on record as “Inactive”. The “CYP2C9 AC50” value in data set [2] is reported as “Inactive”. The AC50 in data set [3] was determined as 52.6 µM; in data set [4], 9.71 µM. In addition, in data set [5], the “CYP2C19 AC50” value is listed as “Inconclusive inhibitor”.

With `Clc1nnc(Cl)c2ccccc12` [1,4-Dichlorophthalazine], in data set [1], the “CYP2D6 AC50” value was “Inconclusive inhibitor”. Besides, the “CYP2C9 AC50” value in data set [2] was “Inactive”. Further, the half-maximal activity concentration (AC50) came to 5.51 µM in data set [3] and 9.06 µM in data set [4]. Further, in data set [5], the “CYP2C19 AC50” value was “Inactive”.

For `O=[N+]([O-])c1c(Cl)cc(Cl)cc1Cl` [2,4,6-Trichloronitrobenzene], in data set [1], the “CYP2D6 AC50” value is “Inactive”. The “CYP2C9 AC50” value in data set [2] was “Inactive”. Moreover, the values for the half-maximal activity concentration (AC50) in data set [3] (setting [8]) and in data set [4] (setting [9]) were 6.35 µM and 34.7 µM, respectively. Further, the “CYP2C19 AC50” value in data set [5] is reported as “Inactive”.

For the compound `O=[N+]([O-])c1c(Cl)c(Cl)c(Cl)c(Cl)c1Cl` [Pentachloronitrobenzene], the “CYP2D6 AC50” value in data set [1] is recorded as “Inactive”. In addition, the “CYP2C9 AC50” value in data set [2] is “Inconclusive inhibitor”. For the same compound, the results for the half-maximal activity concentration (AC50) in data set [3] (setting [8]) and in data set [4] (setting [9]) were 4.7 µM and 1.94 µM, respectively. The “CYP2C19 AC50” value in data set [5] is “Inconclusive inhibitor”.

Take `Cc1ccc2ccccc2n1` [Quinaldine]: the “CYP2D6 AC50” value in data set [1] is on record as “Inactive”. Besides, in data set [2], the “CYP2C9 AC50” value is “Inactive”. Moreover, the AC50 was found to be 47.7 µM in data set [3] (setting [8]) and 44 µM in data set [4] (setting [9]). Also, the “CYP2C19 AC50” value in data set [5] is on record as “Inactive”.

As for `CCCOC(=O)c1ccccc1C(=O)OCCC` [Dipropyl phthalate], the “CYP2D6 AC50” value in data set [1] is “Inactive”. For the same compound, the AC50 in data set [3] (setting [8]) was determined as 9.91 µM; in data set [6], 30 µM; in data set [4] (setting [9]), 2.38 µM; in data set [7] it was 7.01 µM.

Regarding `O=CC(Br)(Br)Br` [Tribromoacetaldehyde], the “CYP2D6 AC50” value in data set [1] is on record as “Inconclusive inhibitor”. Besides, the AC50 in data set [3] (setting [8]) worked out at 10.2 µM; in data set [6], 18.4 µM; in data set [4] (setting [9]) it was 29.6 µM; in data set [7], 53.3 µM.

Values taken from publication PMC12155096 (International Journal of Molecular Sciences, 2025).
